Where a SMILES comes first, the peptide text is derived from it.
Tested on: ZIKV
Test: ZIKV entry into Vero cells, viral RNA by qRT-PCR
Type: cell-based, Zika virus
Conditions: ZIKV treated with 200 µM peptide for 30 min, MOI 0.5, 30 min infection, qRT-PCR normalised to GAPDH
Method: Next, we determined whether the observed Yodha peptide-induced decrease in viral titers was due to blocked viral entry. We reasoned that if the peptide directly kills or disrupts the envelope structure of ZIKV, this would prevent virus entry. To test this, we designed an experiment to measure virus entry, by allowing ZIKV to bind cells at 4 °C for 1 h followed by shifting the cells to 37 °C to permit virus entry (Fig. 2A). It has been shown that DENV2 entry occurs within 25 min by early endosome trafficking. Briefly, we exposed ZIKV to Yodha peptide and then allowed the virus to infect Vero cells for 30 min. We then measured viral RNA within the Vero cells by quantitative Real Time-PCR (qRT-PCR) (Fig. 2B). […] Next, we visualized ZIKV entry or lack thereof by immunofluorescence using antibodies against pan flavivirus E protein. […] We collected culture supernatants at 3, 24, 48, and 72 h after ZIKV infection to quantitate ZIKV by FFU assay (Fig. 2E). ZIKV was not detected at 3 h post-infection in both OVA- or Yodha-treated cells. […]
Figure 2 Yodha peptide inhibits ZIKV entry into cells. […] (B) ZIKV was treated with 200 µM of Yodha or control OVA peptide for 30 min and then used to infect Vero cells at a MOI of 0.5 and expression of ZIKV RNA was determined by quantitative RT-PCR (qRT-PCR). […] Error bars indicate the SEM of four technical replicates statistical significance was assessed by a 2-way ANOVA. […]

For CC[C@H](C)[C@H](NC(=O)[C@@H](NC(=O)CNC(=O)[C@H](CC(C)C)NC(=O)[C@H](Cc1ccccc1)NC(=O)[C@H](Cc1ccccc1)NC(=O)[C@H](CC(C)C)NC(=O)[C@H](CC(C)C)NC(=O)[C@H](CC(C)C)NC(=O)[C@H](CCSC)NC(=O)[C@@H](N)CO)[C@@H](C)O)C(=O)N[C@@H](CO)C(=O)N[C@@H](CC(C)C)C(=O)N[C@@H](CO)C(=O)N[C@@H](CC(C)C)C(=O)N[C@@H](CS)C(=O)N[C@@H](CCC(N)=O)C(=O)N[C@@H](CC(=O)O)C(=O)N[C@@H](CC(=O)O)C(=O)N[C@@H](CCC(N)=O)C(=O)N[C@@H](CCC(=O)O)C(=O)N[C@@H](CCCNC(=N)N)C(=O)N[C@@H](CS)C(=O)O [Yodha] (H-SMLLLFFLGTISLSLCQDDQERC-OH; N-terminus and C-terminus assumed), the “ZIKV RNA expressed compared to the OVA and virus-only controls” value was 20%.
